Measured values: PubChem BioAssay AID256 (DTP/NCI, 2004)
Values joined by “and” are separate entries in the source; they are usually repeats but may differ in a detail not shown here. Identical values can stand only once. Toxic doses and inconclusive results are not listed.

System: CD2F1 mice, L1210 leukemia ip, survival T/C
Assay: NCI In Vivo Anticancer Drug Screen. Data for tumor model L1210 Leukemia (intraperitoneal) in CD2F1 (CDF1) mice
Details: higher = longer survival
In short: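 Each value reflects a quotient of treated over vehicle control outcomes in mice with a transplanted tumor.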

[1] = endpoint: mean survival time, dose: 100.0 mg/kg/injection, schedule: Q01DX001 (ip), vehicle: saline with Tween-80
[2] = endpoint: mean survival time, dose: 200.0 mg/kg/injection, schedule: Q01DX001 (ip), vehicle: saline with Tween-80
[3] = endpoint: mean survival time, dose: 50.0 mg/kg/injection, schedule: Q01DX009 (ip), vehicle: saline with Tween-80
[4] = endpoint: mean survival time, dose: 100.0 mg/kg/injection, schedule: Q01DX009 (ip), vehicle: saline with Tween-80
[5] = endpoint: mean survival time, dose: 100.0 mg/kg/injection, schedule: Q04DX003 (ip), vehicle: saline with Tween-80
[6] = endpoint: mean survival time, dose: 200.0 mg/kg/injection, schedule: Q04DX003 (ip), vehicle: saline with Tween-80
[7] = endpoint: mean survival time, dose: 400.0 mg/kg/injection, schedule: Q04DX003 (ip), vehicle: saline with Tween-80
[8] = endpoint: mean survival time, dose: 100.0 mg/kg/injection, schedule: Q04DX002 (ip), vehicle: saline with Tween-80
[9] = endpoint: mean survival time, dose: 200.0 mg/kg/injection, schedule: Q04DX002 (ip), vehicle: saline with Tween-80
[10] = endpoint: mean survival time, dose: 5.0 mg/kg/injection, schedule: Q01DX009 (ip), vehicle: saline
[11] = endpoint: mean survival time, dose: 10.0 mg/kg/injection, schedule: Q01DX009 (ip), vehicle: saline

In the case of `[Cl][Pt+2][Cl].[NH-]CC1CCCCC1[NH-]` (centres undefined), the T/C (endpoint: mean survival time, dose: 3.12 mg/kg/injection, schedule: Q04DX003 (ip), vehicle: saline with Tween-80) is reported as 222 % of control, the T/C (endpoint: mean survival time, dose: 6.25 mg/kg/injection, schedule: Q04DX003 (ip), vehicle: saline with Tween-80) is reported as 319 % of control and 175 % of control and the T/C (endpoint: mean survival time, dose: 12.5 mg/kg/injection, schedule: Q04DX003 (ip), vehicle: saline with Tween-80) is reported as 348 % of control and 270 % of control. The T/C (endpoint: mean survival time, dose: 25.0 mg/kg/injection, schedule: Q04DX003 (ip), vehicle: saline with Tween-80) was 309 % of control.

In the case of `Cc1cc(NCCN(C(C)C)C(C)C)nc(Nc2nc3ccc(Cl)cc3[nH]2)n1`, the T/C (endpoint: mean survival time, dose: 0.75 mg/kg/injection, schedule: Q01DX009 (ip), vehicle: saline with Tween-80) is reported as 103 % of control, the T/C (endpoint: mean survival time, dose: 1.5 mg/kg/injection, schedule: Q01DX009 (ip), vehicle: saline with Tween-80) is reported as 90 % of control and the T/C (endpoint: mean survival time, dose: 3.0 mg/kg/injection, schedule: Q01DX009 (ip), vehicle: saline with Tween-80) is reported as 106 % of control. For the same molecule, the T/C (endpoint: mean survival time, dose: 6.25 mg/kg/injection, schedule: Q01DX009 (ip), vehicle: saline with Tween-80) was 92 % of control, the T/C (endpoint: mean survival time, dose: 12.5 mg/kg/injection, schedule: Q01DX009 (ip), vehicle: saline with Tween-80) was 92 % of control and the T/C [1] was 96 % of control. For the same molecule, the T/C [2] was 96 % of control and the T/C (endpoint: mean survival time, dose: 400.0 mg/kg/injection, schedule: Q01DX001 (ip), vehicle: saline with Tween-80) was 98 % of control.

For `CN(C)N=Nc1c(F)cc(F)c(F)c1F`, the T/C (endpoint: mean survival time, dose: 25.0 mg/kg/injection, schedule: Q01DX009 (ip), vehicle: saline with Tween-80) was 101 % of control, the T/C [3] was 104 % of control and the T/C [4] was 104 % of control.

For `N#CC1=C(NC2OCC(O)C(O)C2O)CCC1` (centres undefined), the T/C (endpoint: mean survival time, dose: 12.5 mg/kg/injection, schedule: Q01DX005 (ip), vehicle: other) was 108 % of control, the T/C (endpoint: mean survival time, dose: 25.0 mg/kg/injection, schedule: Q01DX005 (ip), vehicle: other) was 95 % of control and the T/C (endpoint: mean survival time, dose: 50.0 mg/kg/injection, schedule: Q01DX005 (ip), vehicle: other) was 98 % of control. For the same molecule, the T/C (endpoint: mean survival time, dose: 100.0 mg/kg/injection, schedule: Q01DX005 (ip), vehicle: other) was 98 % of control and the T/C (endpoint: mean survival time, dose: 200.0 mg/kg/injection, schedule: Q01DX005 (ip), vehicle: other) was 89 % of control.

With `CNC(=O)Oc1ccc(N)cc1` the T/C (endpoint: mean survival time, dose: 75.0 mg/kg/injection, schedule: Q01DX001 (ip), vehicle: saline) was 102 % of control.

For `COc1cccc(C2=CCCCCC2)c1OC`, the T/C [5] was 98 % of control, the T/C [6] was 101 % of control and the T/C [7] was 102 % of control.

In the case of `O=C(O)/C=N/NS(=O)(=O)c1ccccc1`, the T/C (endpoint: mean survival time, dose: 12.5 mg/kg/injection, schedule: Q01DX009 (ip), vehicle: water) is reported as 99 % of control, the T/C (endpoint: mean survival time, dose: 25.0 mg/kg/injection, schedule: Q01DX009 (ip), vehicle: water) is reported as 103 % of control and the T/C (endpoint: mean survival time, dose: 50.0 mg/kg/injection, schedule: Q01DX009 (ip), vehicle: water) is reported as 113 % of control. The T/C (endpoint: mean survival time, dose: 100.0 mg/kg/injection, schedule: Q01DX009 (ip), vehicle: water) was 114 % of control.

`CNc1c(Cl)c(Cl)c(Br)c(Cl)c1Cl` was tested, and the T/C [5] was 100 % of control, the T/C [6] was 95 % of control and the T/C [7] was 101 % of control.

With `O=P1(N(CCCl)CCCl)OCCC(OO)N1CCCl` (centres undefined) the T/C (endpoint: mean survival time, dose: 100.0 mg/kg/injection, schedule: Q01DX001 (ip), vehicle: DMSO) was 268 % of control, the T/C (endpoint: mean survival time, dose: 100.0 mg/kg/injection, schedule: Q01DX001 (ip), vehicle: Klucel (hydroxypropylcellulose) (HPC)) was 281 % of control and the T/C (endpoint: mean survival time, dose: 200.0 mg/kg/injection, schedule: Q01DX001 (ip), vehicle: Klucel (hydroxypropylcellulose) (HPC)) was 309 % of control. For the same molecule, the T/C (endpoint: mean survival time, dose: 400.0 mg/kg/injection, schedule: Q01DX001 (ip), vehicle: DMSO) was 163 % of control.

For `ClC1CCCC[N-]1.ClC1CCCC[N-]1.[Cl][Pt+2][Cl]` (centres undefined), the T/C (endpoint: mean survival time, dose: 12.5 mg/kg/injection, schedule: Q01DX009 (ip), vehicle: Klucel (hydroxypropylcellulose) (HPC)) was 103 % of control, the T/C (endpoint: mean survival time, dose: 25.0 mg/kg/injection, schedule: Q01DX009 (ip), vehicle: Klucel (hydroxypropylcellulose) (HPC)) was 100 % of control and the T/C (endpoint: mean survival time, dose: 50.0 mg/kg/injection, schedule: Q01DX009 (ip), vehicle: Klucel (hydroxypropylcellulose) (HPC)) was 95 % of control. For the same molecule, the T/C (endpoint: mean survival time, dose: 100.0 mg/kg/injection, schedule: Q01DX009 (ip), vehicle: Klucel (hydroxypropylcellulose) (HPC)) was 94 % of control and the T/C (endpoint: mean survival time, dose: 200.0 mg/kg/injection, schedule: Q01DX009 (ip), vehicle: Klucel (hydroxypropylcellulose) (HPC)) was 97 % of control.

In the case of `C/C=C1\C(=O)O[C@@]23C=C[C@H]4C(C(=O)OC)=CO[C@@H](O[C@H]12)[C@H]43`, the T/C (endpoint: mean survival time, dose: 50.0 mg/kg/injection, schedule: Q01DX001 (ip), vehicle: saline) is reported as 95 % of control.

In the case of `CN(C)C(=S)Oc1ccc(S(=O)(=O)F)cc1`, the T/C [8] is reported as 98 % of control, the T/C [9] is reported as 91 % of control and the T/C (endpoint: mean survival time, dose: 400.0 mg/kg/injection, schedule: Q04DX002 (ip), vehicle: saline with Tween-80) is reported as 109 % of control.

`CCOC(=O)C1CC(O)CN1` (centres undefined) was tested, and the T/C (endpoint: mean survival time, dose: 100.0 mg/kg/injection, schedule: Q01DX009 (ip), vehicle: saline sonified) was 98 % of control, the T/C (endpoint: mean survival time, dose: 200.0 mg/kg/injection, schedule: Q01DX009 (ip), vehicle: saline sonified) was 95 % of control and the T/C (endpoint: mean survival time, dose: 400.0 mg/kg/injection, schedule: Q01DX009 (ip), vehicle: saline sonified) was 92 % of control.

With `O=S1(=O)CC2(OCCO2)C1Cl` (centres undefined) the T/C [8] was 95 % of control and the T/C [9] was 91 % of control.

For `ON=c1c2ccccc2oc2ccccc12`, the T/C (endpoint: mean survival time, dose: 100.0 mg/kg/injection, schedule: Q04DX002 (ip), vehicle: Klucel (hydroxypropylcellulose) (HPC)) was 92 % of control and the T/C (endpoint: mean survival time, dose: 200.0 mg/kg/injection, schedule: Q04DX002 (ip), vehicle: Klucel (hydroxypropylcellulose) (HPC)) was 100 % of control.

`CCOc1nc2nc[nH]c(=O)c2cc1C#N` was tested, and the T/C (endpoint: mean survival time, dose: 12.5 mg/kg/injection, schedule: Q04DX002 (ip), vehicle: saline with Tween-80) was 90 % of control, the T/C (endpoint: mean survival time, dose: 25.0 mg/kg/injection, schedule: Q04DX002 (ip), vehicle: saline with Tween-80) was 93 % of control and the T/C (endpoint: mean survival time, dose: 50.0 mg/kg/injection, schedule: Q04DX002 (ip), vehicle: saline with Tween-80) was 104 % of control. The T/C [1] was 107 % of control and the T/C [2] was 95 % of control.

`NC(N)=NCCc1ccccc1` was tested, and the T/C [10] was 102 % of control, the T/C (endpoint: mean survival time, dose: 5.0 mg/kg/injection, schedule: Q04DX003 (ip), vehicle: saline) was 92 % of control and the T/C [11] was 103 % of control. The T/C (endpoint: mean survival time, dose: 10.0 mg/kg/injection, schedule: Q04DX003 (ip), vehicle: saline) was 102 % of control, the T/C (endpoint: mean survival time, dose: 20.0 mg/kg/injection, schedule: Q01DX009 (ip), vehicle: saline) was 96 % of control and the T/C (endpoint: mean survival time, dose: 20.0 mg/kg/injection, schedule: Q04DX003 (ip), vehicle: saline) was 97 % of control.

For `CCOP(=O)(N1CC1(C)C)N1CC1(C)C` (centres undefined), the T/C [10] was 104 % of control, the T/C [11] was 114 % of control and the T/C (endpoint: mean survival time, dose: 30.0 mg/kg/injection, schedule: Q01DX009 (ip), vehicle: saline) was 162 % of control. For the same molecule, the T/C (endpoint: mean survival time, dose: 50.0 mg/kg/injection, schedule: Q01DX009 (ip), vehicle: saline) was 225 % of control, the T/C (endpoint: mean survival time, dose: 80.0 mg/kg/injection, schedule: Q01DX009 (ip), vehicle: saline) was 307 % of control and the T/C (endpoint: mean survival time, dose: 120.0 mg/kg/injection, schedule: Q01DX009 (ip), vehicle: saline) was 102 % of control.

For `CC1(C)C2CCC(I)(C2)C1O` (centres undefined), the T/C (endpoint: mean survival time, dose: 50.0 mg/kg/injection, schedule: Q04DX003 (ip), vehicle: saline with Tween-80) was 101 % of control, the T/C [5] was 101 % of control and the T/C [6] was 101 % of control.

`COc1cc2c(cc1O)CCCC=C2C1CCCCc2cc(O)c(OC)cc21` (centres undefined) was tested, and the T/C [3] was 96 % of control, the T/C [4] was 103 % of control and the T/C (endpoint: mean survival time, dose: 200.0 mg/kg/injection, schedule: Q01DX009 (ip), vehicle: saline with Tween-80) was 96 % of control.

In the case of `FC(F)(F)c1ccc2c(c1)Nc1ccccc1S2`, the T/C (endpoint: mean survival time, dose: 12.5 mg/kg/injection, schedule: Q04DX003 (ip), vehicle: saline) is reported as 96 % of control and 98 % of control, the T/C (endpoint: mean survival time, dose: 25.0 mg/kg/injection, schedule: Q04DX003 (ip), vehicle: saline) is reported as 96 % of control and 101 % of control and the T/C (endpoint: mean survival time, dose: 50.0 mg/kg/injection, schedule: Q04DX003 (ip), vehicle: saline) is reported as 101 % of control and 104 % of control. The T/C (endpoint: mean survival time, dose: 100.0 mg/kg/injection, schedule: Q04DX003 (ip), vehicle: saline) was 101 % of control and 104 % of control and the T/C (endpoint: mean survival time, dose: 200.0 mg/kg/injection, schedule: Q04DX003 (ip), vehicle: saline) was 96 % of control and 98 % of control.

In the case of `CSc1nc(NC2OC(CO)C(O)C(O)C2O)cc(=O)[nH]1` (centres undefined), the T/C (endpoint: median survival time, dose: 12.5 mg/kg/injection, schedule: Q01DX005 (ip), vehicle: saline) is reported as 102 % of control, the T/C (endpoint: median survival time, dose: 25.0 mg/kg/injection, schedule: Q01DX005 (ip), vehicle: saline) is reported as 100 % of control and the T/C (endpoint: median survival time, dose: 50.0 mg/kg/injection, schedule: Q01DX005 (ip), vehicle: saline) is reported as 100 % of control. For the same molecule, the T/C (endpoint: median survival time, dose: 100.0 mg/kg/injection, schedule: Q01DX005 (ip), vehicle: saline) was 100 % of control and the T/C (endpoint: median survival time, dose: 200.0 mg/kg/injection, schedule: Q01DX005 (ip), vehicle: saline) was 102 % of control.
